Data as given in patent publication US11186577B2, “Vasopressin receptor antagonists and products and methods related thereto” (BlackThorn Therapeutics, Inc., priority 2017, dated 2021).

Assays:
[1] = molecular target: human Arginine Vasopressin Receptor 1a (AVPR1a) (Homo sapiens (Human), UniProt P37288); assay: Vasopressin V1A receptor antagonist assay (AVP-evoked calcium, FLIPR, CHO-AVPR1a cells); type: cell-based; conditions: read-out: V1a IC50
Procedure, shortened: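 Antagonism measured as reduction of AVP (EC80, set each assay day) calcium response on FLIPR in dye-loaded CHO-AVPR1a cells. Compounds, 3 μM top in 10-point 1:3 dilution, in duplicate, added 15 min before agonist at 37° C.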

[2] = molecular target: human Oxytocin Receptor (hOTR) (Homo sapiens (Human), UniProt P30559); assay: Oxytocin receptor antagonist assay (oxytocin-evoked calcium, FLIPR, CHEM-1-hOTR cells); type: cell-based; conditions: read-out: OT IC50
Procedure, shortened: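 Oxytocin-evoked intracellular calcium rise measured by FLIPR^TETRA fluorescence (Calcium-6 dye, 3 min read) in CHEM-1-hOTR cells. Test compounds, 10-point 1:3 dilutions, were added 15 min at 37 °C before an EC80 oxytocin challenge (EC80 set each assay day); buffer HBSS with 20 mM HEPES.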

MDR1 (P-gp) = assay: in vitro; conditions: dog, MDCK-MDR1
[3] = molecular target: human Arginine Vasopressin Receptor V2 (AVPR2) (Homo sapiens (Human), UniProt P30518); assay: Vasopressin V2 receptor antagonist assay (cAMP TR-FRET, 1321N1 cells); type: cell-based
Method: The purpose of the assay was to determine the inhibitory effect of synthesized compounds on the Vasopressin receptor 2. […] Arginine Vasopressin (AVP) evokes an increase in intracellular cAMP in these cells which is measured in a TR-FRET assay using a Europium cAMP tracer and ULight labelled antibody reagents contained in a LANCE Ultra cAMP kit (Perkin Elmer #TRF0263). […] Test compounds were assessed for their ability to affect the magnitude of the response to AVP, with antagonists showing a concentration-dependent decrease in the AVP-mediated reduction in TR-FRET signal.
cAMPZen V2 assay ready cells were thawed at 37° C. and resuspended directly from frozen in 9 ml growth medium consisting of DMEM supplemented with 10% v/v fetal bovine serum, 1× non-essential amino acids, and 1 mM sodium pyruvate. Cells were spun at 1000 rpm for 3 minutes and the supernatant was carefully removed and discarded. The pellet was resuspended in 5 ml stimulation buffer and the cell density determined using the Vi-Cell automated cell counter. The cell suspension was diluted to a 0.2×10^6/ml suspension ready for plating. […] Stimulation buffer consisted of HBSS (+Ca/+Mg) supplemented with 5 mM HEPES, 0.1% BSA stabiliser and 0.5 mM IBMX.
At the start of each assay day the potency of AVP was assessed and an EC80 concentration determined for subsequent compound profiling. Assays were performed by first an addition of 2.5 μl of control or test compound at 4× final concentration in stimulation buffer followed by 2.5 μl of AVP at 4× final concentration in stimulation buffer. After a 1 hour reaction, detection reagents were added by first an addition of 5 μl EU-cAMP tracer, followed by 5 μl ULight-anti-cAMP both diluted as per the manufacturer's instructions. […] For compound profiling, test compounds were dispensed by the Labcyte Echo (10-point curve, 1:3 dilutions) in a target 0.1 μl volume then diluted 750-fold in stimulation buffer containing 3% DMSO prior to addition to the cells. At the end of the incubation period, 2.5 μl of AVP in stimulation buffer was added at the previously determined EC80 concentration.

human Oxytocin Receptor (hOTR), sequence (P30559 whole entry): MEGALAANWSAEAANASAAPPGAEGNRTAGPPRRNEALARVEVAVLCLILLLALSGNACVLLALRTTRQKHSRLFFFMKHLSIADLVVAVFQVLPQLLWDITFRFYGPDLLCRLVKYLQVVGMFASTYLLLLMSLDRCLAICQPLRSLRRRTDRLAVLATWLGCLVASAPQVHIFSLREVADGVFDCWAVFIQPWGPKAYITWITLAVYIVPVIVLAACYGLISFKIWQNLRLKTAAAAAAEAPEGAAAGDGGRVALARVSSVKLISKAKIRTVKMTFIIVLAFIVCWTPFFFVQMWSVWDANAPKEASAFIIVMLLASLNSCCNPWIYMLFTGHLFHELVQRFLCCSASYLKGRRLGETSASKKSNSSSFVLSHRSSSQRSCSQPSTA
human Arginine Vasopressin Receptor 1a (AVPR1a), sequence (P37288 whole entry): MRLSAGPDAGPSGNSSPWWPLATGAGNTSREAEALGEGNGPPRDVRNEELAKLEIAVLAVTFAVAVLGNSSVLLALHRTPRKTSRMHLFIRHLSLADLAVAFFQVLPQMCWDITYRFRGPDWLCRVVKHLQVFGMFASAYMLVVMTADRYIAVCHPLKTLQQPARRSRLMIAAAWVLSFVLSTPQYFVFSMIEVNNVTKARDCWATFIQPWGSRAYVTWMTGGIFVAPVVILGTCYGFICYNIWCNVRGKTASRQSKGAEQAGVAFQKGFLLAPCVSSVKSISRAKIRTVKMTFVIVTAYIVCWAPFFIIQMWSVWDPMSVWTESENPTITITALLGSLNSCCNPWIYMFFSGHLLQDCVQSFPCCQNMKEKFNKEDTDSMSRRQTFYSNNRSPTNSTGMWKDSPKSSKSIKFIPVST
human Arginine Vasopressin Receptor V2 (AVPR2), sequence (P30518 whole entry): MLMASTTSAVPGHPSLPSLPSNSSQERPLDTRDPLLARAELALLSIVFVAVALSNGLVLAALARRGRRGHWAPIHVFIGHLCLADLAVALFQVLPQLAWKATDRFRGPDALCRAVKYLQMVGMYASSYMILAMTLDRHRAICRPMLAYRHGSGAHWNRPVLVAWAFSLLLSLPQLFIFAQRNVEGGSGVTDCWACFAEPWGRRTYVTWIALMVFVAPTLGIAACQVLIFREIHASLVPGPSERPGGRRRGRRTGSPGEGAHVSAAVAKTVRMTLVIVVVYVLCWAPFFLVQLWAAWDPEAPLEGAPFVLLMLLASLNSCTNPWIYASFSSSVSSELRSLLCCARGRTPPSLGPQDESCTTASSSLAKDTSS

| Structure (SMILES) | IC50 [1] [nM] | IC50 [2] [nM] | Papp A→B at 2 h (MDR1 (P-gp)) [×10⁻⁶ cm/s] | IC50 [3] [nM] |
| --- | --- | --- | --- | --- |
| Fc1ccc(N2CC3(CC(c4nnc5n4-c4ccc(Cl)cc4CN(C4CC4)C5)C3)C2)nc1 [compound 223] | < 100 | > 1000 | > 20 | < 100 |
| CC1(N2Cc3cc(Cl)ccc3-n3c(nnc3C3CC4(C3)CN(c3ccc(F)cn3)C4)C2)CC1 [Compound No. 255, 8-chloro-1-(2-(5-fluoropyridin-2-yl)-2-azaspiro[3.3]heptan-6-yl)-5-(1-methylcyclopropyl)-5,6-dihydro-4H-benzo[f][1,2,4]triazolo[4,3-a][1,4]diazepine] | < 100 | > 1000 | > 20 | 100 to 500 |
